Test results reported in the NIST ThermoML archive (doi:10.1021/je900660x).
Numbers after ± are expanded uncertainties.

Key:
[1] = for mass density / viscosity / thermal conductivity: 101.33 kPa, Liquid; for mass density: Vibrating tube method; for Glass transition temperature: DTA; for thermal conductivity: Hot wire method
[2] = molar heat capacity at constant pressure; settings: 101.33 kPa, Liquid, Large sample (1 g) DSC

Row | SMILES | mass density ([1]; 293.15 K) [kg/m3] | viscosity ([1]; 298.15 K) [mPa·s] | mass density ([1]; 298.15 K) [kg/m3] | viscosity ([1]; 303.15 K) [mPa·s] | mass density ([1]; 303.15 K) [kg/m3] | viscosity ([1]; 313.15 K) [mPa·s] | mass density ([1]; 313.15 K) [kg/m3] | viscosity ([1]; 323.15 K) [mPa·s] | mass density ([1]; 323.15 K) [kg/m3] | viscosity ([1]; 333.15 K) [mPa·s] | mass density ([1]; 333.15 K) [kg/m3] | viscosity ([1]; 343.15 K) [mPa·s] | mass density ([1]; 343.15 K) [kg/m3] | viscosity ([1]; 353.15 K) [mPa·s] | mass density ([1]; 353.15 K) [kg/m3] | viscosity ([1]; 363.15 K) [mPa·s] | mass density ([1]; 363.15 K) [kg/m3] | Glass transition temperature [1] [°C] | molar heat capacity at constant pressure ([2]; 293.15 K) [J/K/mol] | molar heat capacity at constant pressure ([2]; 298.15 K) [J/K/mol] | also measured
1 | CCCC[N+](C)(CCCC)CCCC.NCCS(=O)(=O)[O-] [N,N-dibutyl-N-methyl-1-butanaminium 2-aminoethanesulfonate] | 1054.1 ± 6 | 6674 ± 2200 | 1051.1 ± 6 | 3965 ± 1200 | 1048.1 ± 5.9 | 1600 ± 380 | 1041.6 ± 5.9 | 716 ± 130 | 1035.7 ± 5.8 | 357.5 ± 48 | 1029.8 ± 5.7 | 193.4 ± 18 | 1023.9 ± 5.7 | 108.2 ± 6.3 | 1018 ± 5.6 | 66.8 ± 2.1 | 1012.1 ± 5.5 | -54.23 ± 4 | 822.3 ± 83 | 826.9 ± 84 | molar heat capacity at constant pressure ([2]; 303.15 K): 831.7 ± 84 J/K/mol; molar heat capacity at constant pressure ([2]; 313.15 K): 842.5 ± 85 J/K/mol; molar heat capacity at constant pressure ([2]; 323.15 K): 853.2 ± 86 J/K/mol; molar heat capacity at constant pressure ([2]; 333.15 K): 863.2 ± 87 J/K/mol; molar heat capacity at constant pressure ([2]; 343.15 K): 872.6 ± 88 J/K/mol; molar heat capacity at constant pressure ([2]; 353.15 K): 882.4 ± 89 J/K/mol; molar heat capacity at constant pressure ([2]; 363.15 K): 891.5 ± 90 J/K/mol
2 | CCCC[N+](C)(CCCC)CCCC.NCCCC[C@H](N)C(=O)[O-] [N,N-dibutyl-N-methyl-1-butanaminium L-lysinate] | 982.9 ± 5.2 | 2593 ± 690 | 979.7 ± 5.2 | 1679 ± 400 | 976.7 ± 5.2 | 741.4 ± 140 | 970.7 ± 5.1 | 368.6 ± 51 | 964.7 ± 5 | 200.2 ± 20 | 958.6 ± 5 | 112.9 ± 6.9 | 952.7 ± 4.9 | 68.3 ± 2.3 | 946.8 ± 4.9 | 43.9 ± 1.3 | 940.8 ± 4.8 | -59.39 ± 4 | 817.3 ± 82 | 823.8 ± 83 | thermal conductivity ([1]; 298.15 K): 0.171 ± 0.01 W/m/K; thermal conductivity ([1]; 303.15 K): 0.17 ± 0.01 W/m/K; thermal conductivity ([1]; 313.15 K): 0.169 ± 0.01 W/m/K; thermal conductivity ([1]; 323.15 K): 0.168 ± 0.01 W/m/K; thermal conductivity ([1]; 333.15 K): 0.167 ± 0.01 W/m/K; thermal conductivity ([1]; 343.15 K): 0.166 ± 0.01 W/m/K; thermal conductivity ([1]; 353.15 K): 0.165 ± 0.01 W/m/K; molar heat capacity at constant pressure ([2]; 303.15 K): 830.8 ± 84 J/K/mol; molar heat capacity at constant pressure ([2]; 313.15 K): 845.6 ± 85 J/K/mol; molar heat capacity at constant pressure ([2]; 323.15 K): 861.2 ± 87 J/K/mol; molar heat capacity at constant pressure ([2]; 333.15 K): 877.7 ± 89 J/K/mol; molar heat capacity at constant pressure ([2]; 343.15 K): 893.3 ± 90 J/K/mol; molar heat capacity at constant pressure ([2]; 353.15 K): 909.5 ± 92 J/K/mol; molar heat capacity at constant pressure ([2]; 363.15 K): 925.1 ± 93 J/K/mol
3 | CCCC[N+](C)(CCCC)CCCC.C[C@@H](O)[C@H](N)C(=O)[O-] [N,N-dibutyl-N-methyl-1-butanaminium L-threoninate] | 1002.6 ± 5.4 | 8368 ± 2900 | 999.5 ± 5.4 | 4916 ± 1500 | 996.4 ± 5.4 | 1845 ± 450 | 990 ± 5.3 | 791.3 ± 150 | 983.7 ± 5.2 | 377.6 ± 52 | 977.7 ± 5.2 | 200.6 ± 20 | 971.7 ± 5.1 | 110.9 ± 6.7 | 965.7 ± 5 | 66.2 ± 2.1 | 959.8 ± 5 | -51.94 ± 4 | 748.5 ± 76 | 752.6 ± 76 | thermal conductivity ([1]; 298.15 K): 0.16 ± 0.01 W/m/K; thermal conductivity ([1]; 303.15 K): 0.159 ± 0.01 W/m/K; thermal conductivity ([1]; 313.15 K): 0.158 ± 0.01 W/m/K; thermal conductivity ([1]; 323.15 K): 0.157 ± 0.01 W/m/K; thermal conductivity ([1]; 333.15 K): 0.156 ± 0.01 W/m/K; thermal conductivity ([1]; 343.15 K): 0.155 ± 0.01 W/m/K; thermal conductivity ([1]; 353.15 K): 0.154 ± 0.01 W/m/K; molar heat capacity at constant pressure ([2]; 303.15 K): 757.1 ± 76 J/K/mol; molar heat capacity at constant pressure ([2]; 313.15 K): 766.9 ± 78 J/K/mol; molar heat capacity at constant pressure ([2]; 323.15 K): 777.4 ± 78 J/K/mol; molar heat capacity at constant pressure ([2]; 333.15 K): 789.2 ± 80 J/K/mol; molar heat capacity at constant pressure ([2]; 343.15 K): 801 ± 81 J/K/mol; molar heat capacity at constant pressure ([2]; 353.15 K): 811.5 ± 82 J/K/mol; molar heat capacity at constant pressure ([2]; 363.15 K): 821.1 ± 83 J/K/mol
4 | CCCC[N+](C)(CCCC)CCCC.N[C@@H](CO)C(=O)[O-] [N,N-dibutyl-N-methylbutanaminium L-serinate] | 1018.8 ± 5.6 | 10214 ± 3700 | 1015.7 ± 5.6 | 5845 ± 1900 | 1012.6 ± 5.5 | 2160 ± 550 | 1006.3 ± 5.5 | 890.7 ± 170 | 999.9 ± 5.4 | 410.3 ± 59 | 993.9 ± 5.3 | 207.9 ± 21 | 987.9 ± 5.3 | 111.8 ± 6.8 | 981.9 ± 5.2 | 64.3 ± 2 | 975.6 ± 5.1 | -50.59 ± 4 | 632.4 ± 64 | 634.8 ± 64 | thermal conductivity ([1]; 298.15 K): 0.169 ± 0.01 W/m/K; thermal conductivity ([1]; 303.15 K): 0.168 ± 0.01 W/m/K; thermal conductivity ([1]; 313.15 K): 0.167 ± 0.01 W/m/K; thermal conductivity ([1]; 323.15 K): 0.166 ± 0.01 W/m/K; thermal conductivity ([1]; 333.15 K): 0.165 ± 0.01 W/m/K; thermal conductivity ([1]; 343.15 K): 0.164 ± 0.01 W/m/K; thermal conductivity ([1]; 353.15 K): 0.163 ± 0.01 W/m/K; molar heat capacity at constant pressure ([2]; 303.15 K): 637.6 ± 64 J/K/mol; molar heat capacity at constant pressure ([2]; 313.15 K): 643.6 ± 65 J/K/mol; molar heat capacity at constant pressure ([2]; 323.15 K): 651 ± 66 J/K/mol; molar heat capacity at constant pressure ([2]; 333.15 K): 658 ± 66 J/K/mol; molar heat capacity at constant pressure ([2]; 343.15 K): 665 ± 67 J/K/mol; molar heat capacity at constant pressure ([2]; 353.15 K): 672.9 ± 68 J/K/mol; molar heat capacity at constant pressure ([2]; 363.15 K): 680.8 ± 69 J/K/mol
5 | CCCC[P+](CCCC)(CCCC)CCCC.NCCS(=O)(=O)[O-] [tetrabutylphosphonium 2-aminoethanesulfonate] | 1030.1 ± 5.7 | 1019 ± 210 | 1026.8 ± 5.7 | 712.6 ± 130 | 1023.7 ± 5.7 | 345.5 ± 46 | 1017.6 ± 5.6 | 186.2 ± 17 | 1011.5 ± 5.5 | 106.7 ± 6.2 | 1005.3 ± 5.5 | 67.5 ± 2.2 | 999.2 ± 5.4 | 44.2 ± 1.3 | 993.3 ± 5.3 | 29.6 ± 0.9 | 987.3 ± 5.3 | -58.14 ± 4 | 987.7 ± 100 | 994.6 ± 100 | molar heat capacity at constant pressure ([2]; 303.15 K): 1001.6 ± 100 J/K/mol; molar heat capacity at constant pressure ([2]; 313.15 K): 1015 ± 100 J/K/mol; molar heat capacity at constant pressure ([2]; 323.15 K): 1028.4 ± 100 J/K/mol; molar heat capacity at constant pressure ([2]; 333.15 K): 1042.6 ± 110 J/K/mol; molar heat capacity at constant pressure ([2]; 343.15 K): 1057.6 ± 110 J/K/mol; molar heat capacity at constant pressure ([2]; 353.15 K): 1073.7 ± 110 J/K/mol; molar heat capacity at constant pressure ([2]; 363.15 K): 1088.6 ± 110 J/K/mol
6 | CCCC[P+](CCCC)(CCCC)CCCC.N[C@@H](CS)C(=O)[O-] [tetrabutylphosphonium L-cysteinate] | 1037.2 ± 5.8 | 2946 ± 810 | 1033.7 ± 5.8 | 1866 ± 460 | 1030 ± 5.7 | 832.7 ± 160 | 1023.8 ± 5.7 | 397.4 ± 57 | 1017.8 ± 5.6 | 208.4 ± 21 | 1011.7 ± 5.5 | 118.3 ± 7.6 | 1005.4 ± 5.5 | 72.5 ± 2.6 | 999.1 ± 5.4 | 46.6 ± 1.4 | 993 ± 5.3 | -29.68 ± 4 | 913.7 ± 92 | 919.8 ± 93 | thermal conductivity ([1]; 298.15 K): 0.152 ± 0.01 W/m/K; thermal conductivity ([1]; 303.15 K): 0.151 ± 0.01 W/m/K; thermal conductivity ([1]; 313.15 K): 0.15 ± 0.01 W/m/K; thermal conductivity ([1]; 323.15 K): 0.149 ± 0.01 W/m/K; thermal conductivity ([1]; 333.15 K): 0.148 ± 0.01 W/m/K; thermal conductivity ([1]; 343.15 K): 0.147 ± 0.01 W/m/K; thermal conductivity ([1]; 353.15 K): 0.146 ± 0.01 W/m/K; molar heat capacity at constant pressure ([2]; 303.15 K): 926.6 ± 94 J/K/mol; molar heat capacity at constant pressure ([2]; 313.15 K): 942.5 ± 95 J/K/mol; molar heat capacity at constant pressure ([2]; 323.15 K): 959.6 ± 97 J/K/mol; molar heat capacity at constant pressure ([2]; 333.15 K): 977.1 ± 99 J/K/mol; molar heat capacity at constant pressure ([2]; 343.15 K): 993.4 ± 100 J/K/mol; molar heat capacity at constant pressure ([2]; 353.15 K): 1008.2 ± 100 J/K/mol; molar heat capacity at constant pressure ([2]; 363.15 K): 1021.5 ± 100 J/K/mol
